According to patent US5145781A (priority 1989, dated 1992):

Assays:
[1] = system: 7 week-old dd mice; assay: Acute toxicity test, oral administration to mice; assay type: in vivo; details: orally administered
[2] = system: alpha-glucosidase; assay: Hydrolysis by alpha-glucosidase from pig liver; assay type: biochemical; details: alpha-glucosidase extracted from pig liver, partially purified
[3] = Water-solubility, light-resistance and stability (general statements); assay type: physicochemical
[4] = cited from earlier work

SMILES	acute toxicity, in words [1]	mortality ([1]; up to 5g, higher dose was difficult)	hydrolysis by alpha-glucosidase [2]	stability in an alkaline solution [3]	solubility in water ([4]; ambient temperature)	solubility in water, in words [4]
C[C@@H]1O[C@@H](OC[C@H]2O[C@@H](Oc3c(-c4ccc(O)c(O)c4)oc4cc(O)cc(O)c4c3=O)[C@H](O)[C@@H](O)[C@@H]2O[C@H]2O[C@H](CO)[C@@H](O)[C@H](O)[C@H]2O)[C@H](O)[C@H](O)[C@H]1O [Example A-2, alpha-glucosyl rutin]	extremely low	the same result	hydrolyzed the alphaglucosyl rutin into rutin and D-glucose	–	–	–
C[C@@H]1O[C@@H](OC[C@H]2O[C@@H](Oc3c(-c4ccc(O)c(O)c4)oc4cc(O)cc(O)c4c3=O)[C@H](O)[C@@H](O)[C@@H]2O)[C@H](O)[C@H](O)[C@H]1O [rutin]	–	–	–	tends to readily decompose	about 0.01 w/v %	hardly soluble in water
